This is an account of results in patent publication US8415469B2, “Compounds and methods for kinase modulation, and indications therefor” (Plexxikon Inc., priority 2005, dated 2013).

SMILES strings stand for the structures.

Common to all, as to format: biochemical
One experiment has as its target T1, MAP2K1 (Homo sapiens, UniProt Q02750).
T1 construct: purchased Invitrogen (assay run by Invitrogen)
Put plainly: Z'-Lyte FRET kinase assay (Invitrogen), MAP2K1. Particulars: read-out: IC50, activity toward kinase MAP2K1.

For the next experiment, the target named is T2, Itk (Homo sapiens, UniProt Q08881).
T2 sequence (Q08881 1-620): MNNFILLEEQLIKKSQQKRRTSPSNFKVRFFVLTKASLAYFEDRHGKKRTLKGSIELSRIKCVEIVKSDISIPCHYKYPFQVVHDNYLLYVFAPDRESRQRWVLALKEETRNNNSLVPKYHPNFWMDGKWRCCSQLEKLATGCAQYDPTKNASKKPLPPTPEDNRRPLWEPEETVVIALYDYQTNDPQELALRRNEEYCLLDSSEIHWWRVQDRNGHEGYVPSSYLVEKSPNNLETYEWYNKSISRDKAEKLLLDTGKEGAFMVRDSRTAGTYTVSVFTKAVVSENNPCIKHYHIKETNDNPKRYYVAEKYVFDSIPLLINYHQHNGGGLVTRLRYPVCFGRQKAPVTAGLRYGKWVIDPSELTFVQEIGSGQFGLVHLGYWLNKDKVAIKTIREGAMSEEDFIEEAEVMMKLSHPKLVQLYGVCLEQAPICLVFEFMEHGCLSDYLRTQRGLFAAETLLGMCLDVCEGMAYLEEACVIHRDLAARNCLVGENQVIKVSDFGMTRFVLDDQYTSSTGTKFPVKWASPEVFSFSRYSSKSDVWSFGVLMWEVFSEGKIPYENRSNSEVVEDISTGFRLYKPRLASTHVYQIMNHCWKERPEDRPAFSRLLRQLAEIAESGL
The experiment can be described thus: AlphaScreen kinase assay, Itk. Particulars: read-out: IC50, activity toward kinase Itk. Summed up: (§1)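 Biotinylated peptide substrate is phosphorylated by kinase; anti-phosphopeptide antibody on acceptor beads and streptavidin donor beads bring emission when substrate is phosphorylated. Inhibition lowers acceptor signal. Compounds from 20 mM DMSO stock tested as 8-point 1:3 serial dilutions.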
(Bead proximity is the source of the signal in Alpha formats.)

For another experiment, the target named is Syk (Homo sapiens, UniProt P43405). Put plainly: AlphaScreen kinase assay, Syk. Particulars: read-out: IC50, activity toward kinase Syk. Summed up: as §1
A further experiment deals with IGF1R (Homo sapiens, UniProt P08069). The experiment can be described thus: AlphaScreen kinase assay, IGF1R. Particulars: read-out: IC50, activity toward kinase IGF1R.
The target of a further experiment is T3, Pyk2 (Homo sapiens, UniProt Q14289).
T3 construct: purchased Upstate Biotechnology
Put plainly: AlphaScreen kinase assay, Pyk2. Particulars: read-out: IC50, activity toward kinase Pyk2.

The target in the next experiment is T4, Flt4 (Homo sapiens, UniProt P35916).
T4 construct: purchased ProQinase GmbH (Freiburg, Germany)
Put plainly: AlphaScreen kinase assay, Flt4. Particulars: read-out: IC50, activity toward kinase Flt4. In outline:
as §1

Another experiment addresses T5, Jnk2 (Homo sapiens, UniProt P45984).
T5 construct: purchased Roche Protein Expression Group (Indianapolis, IN)
The experiment can be described thus: AlphaScreen kinase assay, Jnk2. Particulars: read-out: IC50, activity toward kinase Jnk2. Summed up:
as §1

As usually defined, the IC50 is the midpoint of a concentration-inhibition curve.

Chain of IGF1R (P08069 31-1367): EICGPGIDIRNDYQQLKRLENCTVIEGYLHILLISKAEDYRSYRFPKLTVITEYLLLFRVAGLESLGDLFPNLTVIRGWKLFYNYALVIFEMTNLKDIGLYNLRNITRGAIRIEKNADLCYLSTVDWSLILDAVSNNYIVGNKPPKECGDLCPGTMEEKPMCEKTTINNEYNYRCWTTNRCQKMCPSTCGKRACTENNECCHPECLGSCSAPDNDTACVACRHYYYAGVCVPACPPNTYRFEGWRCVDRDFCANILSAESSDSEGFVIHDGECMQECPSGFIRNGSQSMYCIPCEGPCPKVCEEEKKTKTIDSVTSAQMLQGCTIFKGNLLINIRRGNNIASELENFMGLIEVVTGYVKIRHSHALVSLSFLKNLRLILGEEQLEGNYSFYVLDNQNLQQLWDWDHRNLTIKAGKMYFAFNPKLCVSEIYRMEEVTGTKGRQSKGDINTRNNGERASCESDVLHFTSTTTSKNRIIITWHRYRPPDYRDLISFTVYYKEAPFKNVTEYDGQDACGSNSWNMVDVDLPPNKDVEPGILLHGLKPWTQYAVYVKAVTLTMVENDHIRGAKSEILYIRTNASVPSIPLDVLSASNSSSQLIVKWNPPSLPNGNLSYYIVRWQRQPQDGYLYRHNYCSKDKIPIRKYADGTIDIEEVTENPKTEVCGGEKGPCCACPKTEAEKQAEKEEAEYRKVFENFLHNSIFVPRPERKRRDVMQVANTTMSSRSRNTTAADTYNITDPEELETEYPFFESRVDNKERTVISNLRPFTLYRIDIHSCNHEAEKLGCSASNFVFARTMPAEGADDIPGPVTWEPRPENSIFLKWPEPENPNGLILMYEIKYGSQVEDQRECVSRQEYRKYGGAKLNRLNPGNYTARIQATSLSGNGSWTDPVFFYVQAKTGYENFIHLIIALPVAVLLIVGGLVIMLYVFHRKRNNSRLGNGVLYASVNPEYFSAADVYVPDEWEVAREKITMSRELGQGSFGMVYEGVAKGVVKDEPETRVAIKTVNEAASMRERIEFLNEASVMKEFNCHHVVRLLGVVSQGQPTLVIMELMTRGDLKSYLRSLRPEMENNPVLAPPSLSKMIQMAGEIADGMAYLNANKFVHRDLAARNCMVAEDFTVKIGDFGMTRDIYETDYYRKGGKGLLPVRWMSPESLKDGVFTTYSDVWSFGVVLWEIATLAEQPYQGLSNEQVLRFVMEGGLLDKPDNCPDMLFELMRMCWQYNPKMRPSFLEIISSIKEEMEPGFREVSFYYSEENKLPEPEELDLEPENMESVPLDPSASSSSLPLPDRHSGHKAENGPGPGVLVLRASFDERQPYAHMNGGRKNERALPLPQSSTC
T1 sequence (Q02750 whole entry): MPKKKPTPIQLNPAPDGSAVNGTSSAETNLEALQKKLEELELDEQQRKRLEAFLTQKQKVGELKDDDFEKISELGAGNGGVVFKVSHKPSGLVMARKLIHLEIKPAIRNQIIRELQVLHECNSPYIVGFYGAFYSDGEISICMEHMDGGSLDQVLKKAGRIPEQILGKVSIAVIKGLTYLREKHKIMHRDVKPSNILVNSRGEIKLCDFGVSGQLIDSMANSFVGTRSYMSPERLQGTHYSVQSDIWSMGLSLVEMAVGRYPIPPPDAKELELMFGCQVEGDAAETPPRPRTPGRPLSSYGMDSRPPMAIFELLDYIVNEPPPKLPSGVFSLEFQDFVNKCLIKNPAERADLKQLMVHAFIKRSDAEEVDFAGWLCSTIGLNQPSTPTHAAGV
T4 sequence (P35916 25-1363): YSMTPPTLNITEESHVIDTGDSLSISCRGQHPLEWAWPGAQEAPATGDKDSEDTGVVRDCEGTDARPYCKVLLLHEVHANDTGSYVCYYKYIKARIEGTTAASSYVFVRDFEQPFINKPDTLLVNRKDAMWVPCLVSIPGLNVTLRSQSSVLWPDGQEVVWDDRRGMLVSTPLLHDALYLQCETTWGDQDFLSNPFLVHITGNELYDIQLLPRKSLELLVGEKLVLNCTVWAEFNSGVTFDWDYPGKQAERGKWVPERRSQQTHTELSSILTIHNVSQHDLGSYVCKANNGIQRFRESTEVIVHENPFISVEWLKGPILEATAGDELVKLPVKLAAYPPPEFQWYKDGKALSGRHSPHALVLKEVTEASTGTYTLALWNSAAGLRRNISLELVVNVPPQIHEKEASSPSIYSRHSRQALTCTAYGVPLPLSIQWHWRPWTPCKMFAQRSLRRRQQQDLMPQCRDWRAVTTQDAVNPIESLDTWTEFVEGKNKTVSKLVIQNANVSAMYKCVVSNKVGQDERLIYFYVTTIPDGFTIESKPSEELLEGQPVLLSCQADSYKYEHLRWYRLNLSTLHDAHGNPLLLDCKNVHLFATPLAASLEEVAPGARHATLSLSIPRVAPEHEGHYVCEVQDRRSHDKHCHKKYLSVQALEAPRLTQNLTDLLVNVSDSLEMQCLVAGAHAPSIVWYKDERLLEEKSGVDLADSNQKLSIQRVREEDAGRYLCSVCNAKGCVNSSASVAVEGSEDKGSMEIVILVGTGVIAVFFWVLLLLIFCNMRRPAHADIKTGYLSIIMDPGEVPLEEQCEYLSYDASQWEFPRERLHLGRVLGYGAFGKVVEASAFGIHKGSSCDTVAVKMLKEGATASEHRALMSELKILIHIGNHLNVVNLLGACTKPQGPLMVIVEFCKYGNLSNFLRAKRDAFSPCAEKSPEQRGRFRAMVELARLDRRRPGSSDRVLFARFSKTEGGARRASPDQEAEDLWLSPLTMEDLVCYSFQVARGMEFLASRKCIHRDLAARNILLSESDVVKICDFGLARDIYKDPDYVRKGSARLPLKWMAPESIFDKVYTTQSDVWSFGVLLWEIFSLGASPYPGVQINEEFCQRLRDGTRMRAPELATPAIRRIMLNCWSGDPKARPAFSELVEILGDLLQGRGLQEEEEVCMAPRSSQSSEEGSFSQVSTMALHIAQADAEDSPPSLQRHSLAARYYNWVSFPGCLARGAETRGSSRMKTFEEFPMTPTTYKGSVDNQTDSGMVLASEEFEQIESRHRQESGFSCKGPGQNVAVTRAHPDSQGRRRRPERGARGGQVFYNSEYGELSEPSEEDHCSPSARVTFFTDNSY
T5 sequence (P45984 whole entry): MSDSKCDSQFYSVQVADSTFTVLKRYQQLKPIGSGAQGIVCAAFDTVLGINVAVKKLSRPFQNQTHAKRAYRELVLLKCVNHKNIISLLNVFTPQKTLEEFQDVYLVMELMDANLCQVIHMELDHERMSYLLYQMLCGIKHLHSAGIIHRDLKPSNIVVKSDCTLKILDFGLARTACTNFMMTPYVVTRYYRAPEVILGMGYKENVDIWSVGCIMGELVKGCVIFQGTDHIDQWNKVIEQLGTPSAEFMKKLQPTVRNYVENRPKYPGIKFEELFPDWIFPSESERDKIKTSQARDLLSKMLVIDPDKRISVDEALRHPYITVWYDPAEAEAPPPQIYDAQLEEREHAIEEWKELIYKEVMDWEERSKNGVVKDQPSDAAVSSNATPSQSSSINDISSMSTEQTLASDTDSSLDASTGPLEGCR
T3 sequence (Q14289 whole entry): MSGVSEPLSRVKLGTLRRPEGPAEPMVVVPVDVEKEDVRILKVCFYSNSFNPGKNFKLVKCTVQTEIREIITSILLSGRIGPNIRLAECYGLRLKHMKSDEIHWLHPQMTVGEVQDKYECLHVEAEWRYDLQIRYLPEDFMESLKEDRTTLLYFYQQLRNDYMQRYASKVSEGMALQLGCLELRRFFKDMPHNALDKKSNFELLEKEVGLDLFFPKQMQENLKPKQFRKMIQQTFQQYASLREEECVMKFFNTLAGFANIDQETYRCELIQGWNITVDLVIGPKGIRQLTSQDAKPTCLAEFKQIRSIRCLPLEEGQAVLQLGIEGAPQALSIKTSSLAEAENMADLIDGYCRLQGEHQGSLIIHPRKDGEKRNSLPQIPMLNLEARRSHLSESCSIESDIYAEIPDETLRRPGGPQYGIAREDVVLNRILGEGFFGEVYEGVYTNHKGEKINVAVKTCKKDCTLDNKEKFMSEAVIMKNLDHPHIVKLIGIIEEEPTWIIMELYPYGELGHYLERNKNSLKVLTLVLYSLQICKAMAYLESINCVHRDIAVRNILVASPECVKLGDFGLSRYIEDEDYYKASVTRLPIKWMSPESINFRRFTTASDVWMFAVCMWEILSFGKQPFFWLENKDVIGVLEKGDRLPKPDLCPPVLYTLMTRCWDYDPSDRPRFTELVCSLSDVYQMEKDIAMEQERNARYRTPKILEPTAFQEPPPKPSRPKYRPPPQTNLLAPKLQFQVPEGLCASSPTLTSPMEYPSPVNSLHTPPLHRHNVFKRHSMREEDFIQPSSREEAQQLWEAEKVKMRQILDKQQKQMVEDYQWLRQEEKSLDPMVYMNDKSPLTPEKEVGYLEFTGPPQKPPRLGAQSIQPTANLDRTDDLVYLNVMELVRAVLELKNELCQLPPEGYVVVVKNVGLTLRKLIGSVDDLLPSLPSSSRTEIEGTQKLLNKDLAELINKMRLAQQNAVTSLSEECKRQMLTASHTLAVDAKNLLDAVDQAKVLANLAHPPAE

For `Nc1cccc(-c2cnc3[nH]cc(C(=O)c4cc(O)ccc4F)c3c2)c1` [Compound P-0002], the IC50 on MAP2K1, on Itk, on Syk and on IGF1R was at most 10 µM throughout.

Regarding `CS(=O)(=O)c1cccc(-c2cnc3[nH]cc(C(=O)c4cc(O)ccc4F)c3c2)c1` [Compound P-0008, (2-Fluoro-5-hydroxy-phenyl)-[5-(3-methanesulfonyl-phenyl)-1H-pyrrolo[2,3-b]pyridin-3-yl]-methanone], the IC50 on MAP2K1 and on Itk was at most 10 µM each time.

For `O=C(c1ccc(O)cc1)c1c[nH]c2ncc(-c3cccs3)cc12` [Compound P-0024, (4-Hydroxy-phenyl)-(5-thiophen-2-yl-1H-pyrrolo[2,3-b]pyridin-3-yl)-methanone], the IC50 on Pyk2, on Itk and on Flt4 was at most 10 µM in each case.

Take `Nc1cccc(-c2cnc3[nH]cc(C(=O)c4cccc(O)c4)c3c2)c1` [Compound P-0003]: the IC50 at MAP2K1, at Itk, on Flt4 and on IGF1R was at most 10 µM each time.

Take `Oc1ccc(F)c(C(O)c2c[nH]c3ncc(-c4cccnc4)cc23)c1F` (centres unmarked) [Compound P-0009, 2,4-difluoro-3-[hydroxy-(5-pyridin-3-yl-1H-pyrrolo[2,3-b]pyridin-3-yl)-methyl]-phenol]: the IC50 on Jnk2, at Itk and on IGF1R was at most 10 µM throughout.

Take `O=C(O)/C=C/c1cccc(-c2cnc3[nH]cc(C(=O)c4ccccc4F)c3c2)c1` [Compound P-0033]: the IC50 on Jnk2 and on Syk was at most 10 µM each time.

For `Cc1c(O)cccc1C(=O)c1c[nH]c2ncc(-c3cccnc3)cc12` [Compound P-0006, (3-Hydroxy-2-methyl-phenyl)-(5-pyridin-3-yl-1H-pyrrolo[2,3b]pyridin-3-yl)-methanone], the IC50 at MAP2K1, at Jnk2 and at Itk was at most 10 µM each time.

For `O=C(c1cccc(O)c1F)c1c[nH]c2ncc(-c3cccs3)cc12` [Compound P-0521, (2-fluoro-3-hydroxy-phenyl)-(5-thiophen-2-yl-1H-pyrrolo[2,3-b]pyridin-3-yl)-methanone], the IC50 at Pyk2, at Jnk2, on Itk, at Syk and at Flt4 was at most 10 µM in each case.

Turning to `O=C(c1cccc(O)c1)c1c[nH]c2ncc(-c3cccs3)cc12` [Compound P-0196], the IC50 at Jnk2, on Itk, at Syk and on Flt4 was at most 10 µM in each case.

Consider `COc1cccc(C(=O)c2c[nH]c3ncc(-c4cccc(NC(C)=O)c4)cc23)c1F` [Compound P-1336, N-{3-[3-(2-Fluoro-3-methoxy-benzoyl)-1H-pyrrolo[2,3-b]pyridin-5-yl]-phenyl}-acetamide], for which the IC50 at Syk and on IGF1R was at most 10 µM each time.

As to `O=C(O)/C=C/c1cccc(-c2cnc3[nH]cc(C(=O)c4cc(O)ccc4F)c3c2)c1` [Compound P-0010], the IC50 at MAP2K1, at Pyk2 and at Syk was at most 10 µM in each case.

For `Oc1cccc(Cc2c[nH]c3ncc(-c4ccsc4)cc23)c1` [Compound P-0056], the IC50 at Pyk2, at Jnk2 and at Syk was at most 10 µM throughout.

Turning to `Nc1cccc(-c2cnc3[nH]cc(C(=O)c4cccc(O)c4F)c3c2)c1` [Compound P-0004, [5-(3-amino-phenyl)-1H-pyrrolo[2,3-b]pyridin-3-yl]-(2-fluoro-3-hydroxy-phenyl)methanone], the IC50 at Itk and on IGF1R was at most 10 µM in each case.

For `OCCOc1ccc(F)c(Cc2c[nH]c3ncc(-c4cccnc4)cc23)c1F` [Compound P-1394, 2-[2,4-Difluoro-3-(5-pyridin-3-yl-1H-pyrrolo[2,3-b]pyridin-3-ylmethyl)-phenoxy]-ethanol], the IC50 at IGF1R was at most 10 µM.
